# Measurements as given in US20130261108A1, “COMPOSITIONS AND METHODS FOR MODULATING FARNESOID X RECEPTORS” (IRM LLC, priority 2010, published 2013).
# Target: T1, human Farnesoid X Receptor (FXR) ligand binding domain (Homo sapiens, UniProt Q96RI1)
# T1 construct: purchased Invitrogen
# T1 sequence (Q96RI1 193-472 isoform Q96RI1-2): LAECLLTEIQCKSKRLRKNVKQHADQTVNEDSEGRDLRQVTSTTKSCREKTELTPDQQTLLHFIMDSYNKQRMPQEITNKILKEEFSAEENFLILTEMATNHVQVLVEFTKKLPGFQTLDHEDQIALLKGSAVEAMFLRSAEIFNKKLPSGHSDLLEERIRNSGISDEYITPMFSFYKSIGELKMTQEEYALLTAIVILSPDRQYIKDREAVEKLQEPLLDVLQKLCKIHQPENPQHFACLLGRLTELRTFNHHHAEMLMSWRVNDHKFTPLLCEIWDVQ
# Experiment: Human GST-FXR LBD co-activator interaction assay (FXR HTRF assay)
# Type: biochemical
# Details: GST-FXR LBD with biotin-labeled SRC-1 peptide, FRET/HTRF, 2.5 hours at room temperature; response relative to GW4064; read-out: FXR coactivator interaction assay (HTRF) (EC50)
# From the text: Human GST-FXR LBD Co-Activator Interaction Assay.
# The FXR HTRF assay is a biochemical assay measuring the interaction between FXR and a coactivator protein (SRC1). The ligand-induced interaction with a coactivator protein is a critical step in transcriptional activation by FXR. Thus, this is an assay designed to measure FXR agonist activity of compounds.
# The ligand-dependent interaction between GST-FXR LBD and a peptide derived from Steroid Receptor Coactivator-1 (SRC-1) was monitored by Fluorescence Resonance Energy Transfer (FRET). […] Test compounds (in DMSO solution) and detection reagents (anti-GST-Cryptate labeled antibody and Streptavidin-XL665 conjugate; CisBio) were added in assay buffer containing 50 mM KF. Plates are incubated at room temperature in the dark for 2.5 hours before reading on an Envision (PerkinElmer) at 665 nm and 590 nm.
# A negative control (without Streptavidin-XL665) was run with each assay and represented the background fluorescence. A reference FXR agonist, GW4064, was included in each experiment as positive control. The efficacy of each test compound was compared to that of GW4064. At each concentration, the relative activity of the test compound was expressed as Response %=(Rsample−RDMSO)/(Rpositive−RDMSO), where Rsample is the HTRF response (expressed in Delta F %) for the test compound, Rpositive is the maximal response for GW4064 at saturating concentrations, and RDMSO is the response for DMSO control. The EC50 values were calculated using GraphPad Prism (GraphPad Software) using non-linear regression curve fit (log(agonist) vs. response−variable slope (four parameters)).
row,SMILES,EC50
1,"O=C(O)c1ccc2nc(N3CCC(OCc4c(C5CCCCC5C(F)(F)F)noc4C4CC4)CC3)sc2c1 (single isomer, unassigned) [5 (Diastereomer A)]",245 nM
2,"O=C(O)c1ccc2nc(N3CCC(OCc4c(C5CCCCC5C(F)(F)F)noc4C4CC4)CC3)sc2c1 (single isomer, unassigned) [5 (Diastereomer B)]",64 nM
3,"CCOC(=O)c1ccc2nc(N3CCC(OCc4c(-c5ccccc5OC(F)(F)F)noc4C4CC4)CC3)sc2c1 [Example 1-1A, Ethyl 2-(4-((5-cyclopropyl-3-(2-(trifluoromethoxy)phenyl)isoxazol-4-yl)methoxy)piperidin-1-yl)benzo[d]thiazole-6-carboxylate]",929 nM
4,"COc1cc(C(=O)O)cc2sc(N3CCC(OCc4c(-c5ccccc5OC(F)(F)F)noc4C4CC4)CC3)nc12 [Example 1-2, 2-(4-((5-cyclopropyl-3-(2-(trifluoromethoxy)phenyl)isoxazol-4-yl)methoxy)piperidin-1-yl)-4-methoxybenzo[d]thiazole-6-carboxylic acid]",12 nM
5,"O=C(O)c1cc(F)c2nc(N3CCC(OCc4c(-c5ccccc5OC(F)(F)F)noc4C4CC4)CC3)sc2c1 [Example 1-3, 2-(4-((5-cyclopropyl-3-(2-(trifluoromethoxy)phenyl)isoxazol-4-yl)methoxy)piperidin-1-yl)-4-fluorobenzo[d]thiazole-6-carboxylic acid]",17 nM
6,"COc1cc(C(=O)O)cc2sc(N3CCC(OCc4c(-c5ccccc5C(F)(F)F)noc4C4CC4)CC3)nc12 [Example 1-4, 2-(4-((5-cyclopropyl-3-(2-(trifluoromethyl)phenyl)isoxazol-4-yl)methoxy)piperidin-1-yl)-4-methoxybenzo[d]thiazole-6-carboxylic acid]",4 nM
7,"CCOC(=O)c1ccc2nc(N3CCC(OCc4c(-c5ccccc5OC(F)(F)F)noc4C4(C)CC4)CC3)sc2c1 [Example 2-2A, ethyl 2-(4-{[5-(1-methylcyclopropyl)-3-[2-(trifluoromethoxy)phenyl]-1,2-oxazol-4-yl]methoxy}piperidin-1-yl)-1,3-benzothiazole-6-carboxylate]",1180 nM
8,"CC1(c2onc(-c3ccccc3OC(F)(F)F)c2COC2CCN(c3nc4ccc(C(=O)O)cc4s3)CC2)CC1 [Example 2-2B, 2-(4-{[5-(1-methylcyclopropyl)-3-[2-(trifluoromethoxy)phenyl]-1,2-oxazol-4-yl]methoxy}piperidin-1-yl)-1,3-benzothiazole-6-carboxylic acid]",98 nM
9,"CCOC(=O)c1ccc2nc(N3CCC(OCc4c(-c5ccccc5C(F)(F)F)noc4C4CC4)CC3)sc2c1 [Example 2-5A, ethyl 2-[4-({5-cyclopropyl-3-[2-(trifluoromethyl)phenyl]-1,2-oxazol-4-yl}methoxy)piperidin-1-yl]-1,3-benzothiazole-6-carboxylate]",761 nM
10,"O=C(O)c1ccc2nc(N3CCC(OCc4c(-c5ccccc5C(F)(F)F)noc4C4CC4)CC3)sc2c1 [Example 2-5B, 2-[4-({5-cyclopropyl-3-[2-(trifluoromethyl)phenyl]-1,2-oxazol-4-yl}methoxy)piperidin-1-yl]-1,3-benzothiazole-6-carboxylic acid]",86 nM
11,"CCOC(=O)c1ccc2nc(N3CCC(OCc4c(-c5c(Cl)cccc5C(F)(F)F)noc4C4CC4)CC3)sc2c1 [Example 2-6A, ethyl 2-[4-({3-[2-chloro-6-(trifluoromethyl)phenyl]-5-cyclopropyl-1,2-oxazol-4-yl}methoxy)piperidin-1-yl]-1,3-benzothiazole-6-carboxylate]",396 nM
12,"O=C(O)c1ccc2nc(N3CCC(OCc4c(-c5c(Cl)cccc5C(F)(F)F)noc4C4CC4)CC3)sc2c1 [Example 2-6B, 2-[4-({3-[2-chloro-6-(trifluoromethyl)phenyl]-5-cyclopropyl-1,2-oxazol-4-yl}methoxy)piperidin-1-yl]-1,3-benzothiazole-6-carboxylic acid]",198 nM
13,"CCOC(=O)c1ccc2nc(N3CCC(OCc4c(-c5c(OC)cccc5C(F)(F)F)noc4C4CC4)CC3)sc2c1 [Example 2-7A, ethyl 2-[4-({5-cyclopropyl-3-[2-methoxy-6-(trifluoromethyl)phenyl]-1,2-oxazol-4-yl}methoxy)piperidin-1-yl]-1,3-benzothiazole-6-carboxylate]",736 nM
14,"COc1cccc(C(F)(F)F)c1-c1noc(C2CC2)c1COC1CCN(c2nc3ccc(C(=O)O)cc3s2)CC1 [Example 2-7B, 2-[4-({5-cyclopropyl-3-[2-methoxy-6-(trifluoromethyl)phenyl]-1,2-oxazol-4-yl}methoxy)piperidin-1-yl]-1,3-benzothiazole-6-carboxylic acid]",75 nM
15,"CCOC(=O)c1ccc2nc(N3CCC(OCc4c(-c5ccccc5OC(F)F)noc4C4CC4)CC3)sc2c1 [Example 2-8A, ethyl 2-[4-({5-cyclopropyl-3-[2-(difluoromethoxy)phenyl]-1,2-oxazol-4-yl}methoxy)piperidin-1-yl]-1,3-benzothiazole-6-carboxylate]",2420 nM
16,"O=C(O)c1ccc2nc(N3CCC(OCc4c(-c5ccccc5OC(F)F)noc4C4CC4)CC3)sc2c1 [Example 2-8B, 2-[4-({5-cyclopropyl-3-[2-(difluoromethoxy)phenyl]-1,2-oxazol-4-yl}methoxy)piperidin-1-yl]-1,3-benzothiazole-6-carboxylic acid]",45 nM
17,"CCOC(=O)c1ccc2nc(N3CCC(OCc4c(-c5c(F)cccc5Cl)noc4C4CC4)CC3)sc2c1 [Example 2-11A, ethyl 2-(4-{[3-(2-chloro-6-fluorophenyl)-5-cyclopropyl-1,2-oxazol-4-yl]methoxy}piperidin-1-yl)-1,3-benzothiazole-6-carboxylate]",557 nM
18,"O=C(O)c1ccc2nc(N3CCC(OCc4c(-c5c(F)cccc5Cl)noc4C4CC4)CC3)sc2c1 [Example 2-12B, 2-(4-{[3-(2-chloro-6-fluorophenyl)-5-cyclopropyl-1,2-oxazol-4-yl]methoxy}piperidin-1-yl)-1,3-benzothiazole-6-carboxylic acid]",57 nM

# Second part, the compound after the results:
row,EC50,SMILES
1,62 nM,"O=C(O)c1ccc2sc(N3CCC(OCc4c(-c5ccccc5OC(F)(F)F)noc4C4CC4)CC3)nc2c1 [Example 2-1, 2-[4-({5-cyclopropyl-3-[2-(trifluoromethoxy)phenyl]-1,2-oxazol-4-yl}methoxy)piperidin-1-yl]1,3-benzothiazole-5-carboxylic acid]"
2,24 nM,"Cc1cc(C(=O)O)cc2sc(N3CCC(OCc4c(-c5ccccc5OC(F)(F)F)noc4C4CC4)CC3)nc12 [Example 2-3, 2-[4-({5-cyclopropyl-3-[2-(trifluoromethoxy)phenyl]-1,2-oxazol-4-yl}methoxy)piperidin-1-yl]-4-methyl-1,3-benzothiazole-6-carboxylic acid]"
3,5 nM,"O=C(O)c1cc(OC(F)(F)F)c2nc(N3CCC(OCc4c(-c5ccccc5OC(F)(F)F)noc4C4CC4)CC3)sc2c1 [Example 2-4, 2-[4-({5-cyclopropyl-3-[2-(trifluoromethoxy)phenyl]-1,2-oxazol-4-yl}methoxy)piperidin-1-yl]-4-(trifluoromethoxy)-1,3-benzothiazole-6-carboxylic acid]"
4,26 nM,"Cc1cc(C(=O)O)cc2sc(N3CCC(OCc4c(-c5ccccc5OC(F)F)noc4C4CC4)CC3)nc12 [Example 2-9, 2-[4-({5-cyclopropyl-3-[2-(difluoromethoxy)phenyl]-1,2-oxazol-4-yl}methoxy)piperidin-1-yl]-4-methyl-1,3-benzothiazole-6-carboxylic acid]"
5,21 nM,"O=C(O)c1cc(F)c2nc(N3CCC(OCc4c(-c5ccccc5OC(F)F)noc4C4CC4)CC3)sc2c1 [Example 2-10, 2-[4-({5-cyclopropyl-3-[2-(difluoromethoxy)phenyl]-1,2-oxazol-4-yl}methoxy)piperidin-1-yl]-4-fluoro-1,3-benzothiazole-6-carboxylic acid]"
6,10 nM,"O=C(O)c1ccc2nc(N3CCC(OCc4c(-c5c(Cl)cccc5Cl)noc4C4CC4)CC3)sc2c1 [Example 2-13, 2-(4-{[5-cyclopropyl-3-(2,6-dichlorophenyl)-1,2-oxazol-4-yl]methoxy}piperidin-1-yl)-1,3-benzothiazole-6-carboxylic acid]"
7,31 nM,"O=C(O)c1ccc2nc(N3CCC(OCc4c(-c5c(F)cccc5F)noc4C4CC4)CC3)sc2c1 [Example 2-14, 2-(4-{[5-cyclopropyl-3-(2,6-difluorophenyl)-1,2-oxazol-4-yl]methoxy}piperidin-1-yl)-1,3-benzothiazole-6-carboxylic acid]"
